The assay concerns the target Cyclin-dependent kinase 2/cyclin E1 (Homo sapiens) (UniProt P24864+P24941). In words: Inhibition of C-terminal Avi-tagged CDK2/Cyclin E1 (unknown origin) extracted from Escherichia coli assessed as reduction in RB1 phosphorylation at S780 residue incubated for 60 mins in the presence of ATP by TR-FRET assay. Format: protein-complex assay.

This is an account of results in ChEMBL document CHEMBL6121025, “Novel Compounds as CDK2 Inhibitors for Treating Cancer” (ACS Med Chem Lett, 2025).

In the case of `O=C1N([C@@H]2CCC[C@@H](O)C2)c2nc(Nc3c[nH]nc3C(F)F)ncc2C12CC2`, the INH turned out to be 0.007 µM. `O=C1N([C@@H]2CCC[C@@H](O)C2)c2nc(Nc3c[nH]nc3-c3cnn4cccnc34)ncc2C12CC2`: the INH came out at 0.006 µM. The figure for `O=C1N([C@@H]2CCC[C@@H](O)C2)c2nc(Nc3c[nH]nc3[C@H]3CC3(F)F)ncc2C12CC2` is 0.006 µM. Take `O=C1N([C@@H]2CCC[C@@H](O)C2)c2nc(Nc3c[nH]nc3O[C@@H]3CC3(F)F)ncc2C12CC2`: the INH amounted to 0.006 µM. The value for `O=C1N([C@@H]2CCC[C@@H](O)C2)c2nc(Nc3c[nH]nc3OCC(F)F)ncc2C12CC2` was 0.005 µM; that for `O=C1N([C@@H]2CCC[C@@H](O)C2)c2nc(Nc3c[nH]nc3O[C@H]3CC3(F)F)ncc2C12CC2` was 0.006 µM.
